The structures appear in SMILES notation.

We go through six compounds from patent EP0656889B1, “9-CHLOROPROSTAGLANDIN ESTERS AND AMIDES AND THEIR USE IN THE PREPARATION OF DRUGS” (SCHERING AKTIENGESELLSCHAFT, priority 1992, dated 1994).

One assay has as its system haarlosen Ratten. As to the kind of experiment: Measurement of skin blood flow (non-invasive laser Doppler method) after topical application, Beispiel 13. It counts as in vivo, Ratten (Wister; hairless ). Particulars: 4 h after local application on abdominal skin of anaesthetised (Urethan) hairless rats, solvent Isopropylmyristat in Ethanol 5/95 v/v. The source says:
(§1) Messung der Hautdurchblutung
Die Hautdurchblutung wurde mit der nichtinvasiven Laser-Doppler Methode bestimmt. Die Messsungen wurden 4 Stunden nach der lokalen Applikation der Substanzen auf der Bauchhaut von narkotisierten ( Urethan ) haarlosen Ratten* durchgeführt. Als Lösungsmittel wurde Isopropylmyristat in Ethanol verwendet ( 5/95; v/v ).
* Für diese Untersuchungen wurden weibliche Ratten (Wister; hairless ) mit einem Körpergewicht von 200-250g verwendet.

The test system of another assay is Hairless Ratten. Put plainly: Measurement of skin blood flow (laser Doppler flowmeter) after topical application, Beispiel 12. It counts as in vivo. Particulars: topical on abdomen of anaesthetised female hairless rats, solvent 5% Isopropylmyristat in Ethanol, measured 2 and 4 h after application (time not given). As for the experimental part:
as §1
Hairless Ratten (weiblich) werden gewogen (200-250g), mit 0,5ml 25% Urethan in 0,9% NaCl /100g/kg (2/3 i.p., 1/3 s.c.) narkotisiert und auf eine vorgeheizte Wärmeplatte der Fa. Jowitherm gelegt.
Auf dem Abdomen wird eine kreisförmige Fläche von 34mm Durchmesser ca. 2cm unterhalb der Sternumspitze markiert. Pro Tier wird eine Testsubstanz appliziert, die mit dem Randomisierungsprogramm RDRK zugeordnet wurde. Als Lösungsmittel wird 5% Isopropylmyristat in Ethanol verwendet. […] der jeweiligen Testlösung werden mit einer Eppendorf-Pipette gleichmäßig aufgetragen. Danach wird die behandelte Haut nochmals in drei Meßflächen von jeweils 18mm Druchmesser unterteilt und markiert. Die Hautdurchblutung wird 2 und 4 Stunden ( und gegebenenfalls 6 Stunden) nach der Applikation mit einem Laser Doppler Flowmeter (Firma Perimed) gemessen. Es werden an jedem Tier Dreifachmessungen an den markierten Stellen durchgeführt.

The mark [1] stands for this setting: applied concentration 0,001 Prozent.
Setting [2] is: applied concentration 0,003 Prozent.

As for `CC(C)OC(=O)COC/C=C\C[C@@H]1[C@@H](/C=C/[C@@H](O)C2CCCCC2)[C@H](O)C[C@H]1Cl` [Beispiel 10, (5Z,13E)-(9R,11R,15S)-9-Chlor-3-oxa-15-cyclohexyl-11,15-dihydroxy-16,17,18,19,20-pentanor-5,13-prostadiensäureisopropylester], the “Steigerung der Hautdurchblutung in Prozent” value was 232 Prozent with haarlosen Ratten (setting [1]) and 307 Prozent with haarlosen Ratten (setting [2]).

In the case of `CCOC(=O)CCC/C=C\C[C@@H]1[C@@H](/C=C/[C@@H](O)C2CCCCC2)[C@H](O)C[C@H]1Cl` [Beispiel 6, (5Z,13E)-(9R,11R,15S)-9-Chlor-15-cyclohexyl-11,15-dihydroxy-16,17,18,19,20-pentanor-5,13-prostadiensäureethylester], the “Steigerung der Hautdurchblutung in Prozent” value in the assay on haarlosen Ratten (setting [1]) amounted to 115 Prozent; in the assay with haarlosen Ratten (setting [2]) it was 197 Prozent.

Turning to `O=C(COC/C=C\C[C@@H]1[C@@H](/C=C/[C@@H](O)C2CCCCC2)[C@H](O)C[C@H]1Cl)OCC(=O)c1ccccc1` [Beispiel 3, (5Z,13E)-(9R,11R,15S)-9-Chlor-3-oxa-15-cyclohexyl-11,15-dihydroxy-16,17,18,19,20-pentanor-5,13-prostadiensäurephenacylester], the entries for the “Steigerung der Hautdurchblutung in Prozent” value in the assay with Hairless Ratten (setting [1]) and in the assay with Hairless Ratten (setting [2]) were 139 Prozent and 146 Prozent, respectively.

As to `CC(C)OC(=O)CCC/C=C\C[C@@H]1[C@@H](/C=C/[C@@H](O)C2CCCCC2)[C@H](O)C[C@H]1Cl` [Beispiel 7, (5Z,13E)-(9R,11R,15S)-9-Chlor-15-cydohexyl-11,15-dihydroxy-16,17,18,19,20-pentanor-5,13-prostadiensäureisopropylester], the “Steigerung der Hautdurchblutung in Prozent” value with haarlosen Ratten (setting [1]) came out at 93 Prozent; with haarlosen Ratten (setting [2]), 183 Prozent.

As for `CCOC(=O)COC/C=C\C[C@@H]1[C@@H](/C=C/[C@@H](O)C2CCCCC2)[C@H](O)C[C@H]1Cl` [Beispiel 9, (5Z,13E)-(9R,11R,15S)-9-Chlor-3-oxa-15-cyclohexyl-11,15-dihydroxy-16,17,18,19,20-pentanor-5,13-prostadiensäureethylester], the “Steigerung der Hautdurchblutung in Prozent” value with haarlosen Ratten (setting [1]) came out at 200 Prozent; with haarlosen Ratten (setting [2]), 325 Prozent.

For `O=C(CCC/C=C\C[C@@H]1[C@@H](/C=C/[C@@H](O)C2CCCCC2)[C@H](O)C[C@H]1Cl)OCC(=O)c1ccccc1` [Beispiel 1, (5Z,13E)-(9R,11R,15S)-9-Chlor-15-cyclohexyl-11,15-dihydroxy-16,17,18,19,20-pentanor-5,13-prostadiensäurephenacylester], the “Steigerung der Hautdurchblutung in Prozent” value is 50 Prozent with Hairless Ratten (setting [1]) and 160 Prozent with Hairless Ratten (setting [2]).
